Reference: patent publication US6603031B1, “Vitamin D derivatives with cyclic substructures in the side chains, process and intermediate products for their production, and the use for the production of pharmaceutical agents” (Schering Aktiengesellschaft, priority 1999, dated 2003)
Where two headings read alike, the source gives them in different places.

What was measured:
[1] = rat, in vivo, sc
Experimental: (§1) To determine the acute hypercalcemic action of various calcitriol derivatives, the test that is described below is carried out:
(§2) During the testing time, the rats are kept in special cages to determine the excretion-of water-and mineral substances. Urine is collected in 2 fractions (0-16 hours and 16-22 hours). An oral dose of calcium (0.1 mmol of calcium in 6.5% alpha-hydroxypropyl-cellulose, 5 ml/animal) replaces at 1600 hours the calcium intake that is lacking by food deprivation. At the end of the test, the animals are killed by decapitation and exsanguinated to determine the serum-calcium values. For the primary screen test in vivo, an individual standard dose (200 μg/kg) is tested. For selected substances, the result is supported by establishing a dose-effect relation.
(§3) The significance of differences occurring between substance groups and controls and between test substance and reference substance are supported with suitable statistical processes.

[2] = tested on: HL 60 cells; assay: differentiation induction of HL 60 cells to macrophages (NBT reduction); type: cell-based, human; settings: 96 hours incubation, reference calcitriol
Experimental: The differentiation-stimulating action of calcitriol analogues is also detected quantitatively.
It is known in the literature [D. J. Mangelsdorf et al., J. Cell. Biol. 98: 391 (1984)] that the treatment of human leukemia cells (promyelocyte cell line HL 60) in vitro with calcitriol induces the differentiation of cells to macrophages.
HL 60 cells are cultivated in tissue culture medium (RPMI 10% fetal calf serum) at 37° C. in an atmosphere of 5% CO2 in air.
For substance testing, the cells are centrifuged off, and 2.0×10^5 cells/ml in phenol red-free tissue culture medium is taken up. The test substances are dissolved in ethanol and diluted with tissue culture medium without phenol red to the desired concentration. The dilution stages are mixed with the cell suspension at a ratio of 1:10, and 100 μl each of this cell suspension that is mixed with substance is pipetted into an indentation of a 96-hole plate. For control, a cell suspension is mixed analogously with the solvent.
After incubation for 96 hours at 37° C. in 5% CO2 in air, 100 μl of an NBT-TPA solution (nitro blue tetrazolium (NBT), final concentration in the batch of 1 mg/ml, tetradecanoyl phorbolmyristate-13-acetate (TPA), final concentration in the batch of 2×10^−7 mol/l) is pipetted into each indentation of the 96-hole plate in the cell suspension.
By incubation for 2 hours at 37° C. and 5% CO2 in air, NBT is reduced to insoluble formazan because of the intracellular oxygen radical release, stimulated by TPA, in the cells that are differentiated to macrophages.
To complete the reaction, the indentations of the 96-hole plate are suctioned off, and the cells are affixed to the bottom of the plate by adding methanol and dried after affixing. To dissolve the intracellular formazan crystals that are formed, 100 μl of potassium hydroxide (2 mol/l) and 100 μl of dimethyl sulfoxide are pipetted into each indentation and ultrasonically treated for 1 minute. The concentration of formazan is measured by spectrophotometry at 650 nm.
As a yardstick for the differentiation induction of HL 60 cells to macrophages, the concentration of formed formazan applies.

[3] = target: T1, vitamin D receptor (Sus scrofa, UniProt A3RGC1); assay: calcitriol-receptor test (competition with 3H-calcitriol); settings: protein extract from intestines of juvenile pigs
T1 sequence (A3RGC1 1-427): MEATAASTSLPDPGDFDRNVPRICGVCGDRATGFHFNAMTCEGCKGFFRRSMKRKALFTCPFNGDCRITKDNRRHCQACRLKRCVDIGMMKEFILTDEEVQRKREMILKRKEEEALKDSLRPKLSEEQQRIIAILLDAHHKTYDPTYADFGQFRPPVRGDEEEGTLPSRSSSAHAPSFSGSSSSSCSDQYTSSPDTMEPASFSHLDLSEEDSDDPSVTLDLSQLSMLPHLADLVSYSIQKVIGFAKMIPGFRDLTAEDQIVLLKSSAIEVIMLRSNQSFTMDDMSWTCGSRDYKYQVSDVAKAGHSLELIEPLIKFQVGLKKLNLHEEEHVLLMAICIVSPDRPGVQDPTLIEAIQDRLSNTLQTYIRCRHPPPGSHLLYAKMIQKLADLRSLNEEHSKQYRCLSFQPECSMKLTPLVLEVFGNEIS
Experimental: The vitamin D activity of the substances according to the invention is determined with the aid of the calcitriol-receptor test. It is carried out using a protein extract from the intestines of juvenile pigs. […] To this end, 250 μl of a charcoal-dextran suspension is fed to each test tube and incubated at 4° C. for 20 minutes. Then, the samples are centrifuged at 10,000 g for 5 minutes at 40° C. The supernatant is decanted and measured in a β-counter after 1 hour of equilibration in Picofluor 15™.
The competition curves that are obtained at various concentrations of test substance as well as of reference substance (unlabeled calcitriol) at constant concentration of the reference substance (^3H-calcitriol) are placed in relation to one another, and a competition factor (KF) is determined.
It is defined as a quotient of the concentrations of the respective test substance and the reference substance, which are necessary for 50% competition:
KF=Concentration of test substance at 50% competition/Concentration of reference substance at 50% competition

[4] = acute hypercalcemic action after one-time subcutaneous administration (serum calcium); settings: male rats, reference calcitriol
Experimental: as §1, §2, §3

Compound	DR (Ca) (dose ratio for hypercalcemia, test substance dose/reference substance dose for comparable actions) [1]	KF (competition factor: concentration of test substance / reference substance at 50% competition) [3]	DR (HL 60) (dose ratio test substance/reference substance for comparable semi-maximum actions) [2]	DR (Ca) (dose ratio for hypercalcemia, test substance dose/reference substance dose for comparable actions) [4]
CC(CCCC(O)c1cocn1)C1CCC2C(=CC=C3CC(O)CC(O)C3)CCCC21C [16a, (7E)-(1R,3R,24aR)-24a-(Oxazol-4-yl)-24a-homo-19-nor-9,10-secochola-5,7-diene-1,3,24a-triol]	>30	5	5	–
C=C1C(=CC=C2CCCC3(C)C2CCC3C(C)CCCC(O)c2cocn2)CC(O)CC1O [20a, (5Z,7E)-(1S,3R,24aR)-24a-(Oxazol-4-yl)-24a-homo-9,10-secochola-5,7,10(19)-triene-1,3,24a-triol]	–	3	2	>50
C=C1/C(=C\C=C2/CCC[C@]3(C)[C@@H]([C@H](C)CCCC(C)(C)O)CC[C@@H]23)C[C@@H](O)C[C@@H]1O [Calcitriol, 1,25-dihydroxy vitamin D3, reference compound]	–	–	1	1

More lines, main results first:

DR (Ca) (dose ratio for hypercalcemia, test substance dose/reference substance dose for comparable actions) [1]	KF (competition factor: concentration of test substance / reference substance at 50% competition) [3]	Compound	DR (HL 60) (dose ratio test substance/reference substance for comparable semi-maximum actions) [2]	DR (Ca) (dose ratio for hypercalcemia, test substance dose/reference substance dose for comparable actions) [4]
>100	5	C[C@H](CCC[C@H](O)c1cccs1)[C@H]1CC[C@H]2/C(=C/C=C3C[C@@H](O)C[C@H](O)C3)CCC[C@]12C [55b, (7E)-(1R,3R,24aS)-24a-(thien-2-yl)-24a-homo-19-nor-9,10-secochola-5,7-diene-1,3,24a-triol]	8	–
>300	7	C=C1C(=CC=C2CCCC3(C)C2CCC3C(C)CCC(O)c2nccs2)CC(O)CC1O [217a, (5Z,7E)-(1S,3R,24S)-24-(Thiazol-2-yl)-9,10-secochola-5,7,10(19)-triene-1,3,24-triol]	100	–
>350	12	C[C@H](CCCC(=O)c1cccs1)[C@H]1CC[C@H]2/C(=C/C=C3C[C@@H](O)C[C@H](O)C3)CCC[C@]12C [compound 57, (7E)-(1R,3R)-1,3-Dihydroxy-24a-(thien-2-yl)-24a-homo-19-nor-9,10-secochola-5,7-dien-24a-one]	2	–
